# Legend:
# fAβ(1-42) = target: T1, fAβ(1-42) (Homo sapiens, UniProt P05067); settings: within a few hours at pH 7.5 at 37° C.; cited from earlier work
# T1 construct: fAβ(1-42) within a few hours at pH 7.5
# [1] = tested on: mammary carcinoma MX-1 xenograft; settings: intratumoral single dose or topical application, athymic mice; cited from earlier work
# β-amyloid fibrils = settings: in vitro; cited from earlier work
# [2] = in vivo; cited from earlier work
# fAβ(1-40) = target: T2, fAβ(1-40) (Homo sapiens, UniProt P05067); settings: within a few hours at pH 7.5 at 37° C.; cited from earlier work
# T2 construct: broke down fAβ(1-40)
# T2 sequence (P05067 672-711 limits assumed): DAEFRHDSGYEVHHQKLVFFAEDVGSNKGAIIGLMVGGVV
# [3] = rodents; cited from earlier work
# head and neck cancer = experiment: ex-US clinical study, daily M4N with or without G4N followed by surgical resection; assay type: in vivo, humans
# [4] = dog, in vivo, iv
# Protocol: In this example the Maximal Tolerable Dose (MTD) of Dimethyl Sulfoxide (DMSO)] to male and female Beagle Dogs was determined.
# Thus the M4N-DMSO group animals were administered with M4N-DMSO with eight intravenous injections via the non-VAP jugular vein every 30 minutes over a 4-hour period. This frequency of delivery mimicked the delivery of the test article using the infusion pump.
# The dogs in the DMSO group were observed throughout the jugular vein injection period and for at least one hour following the last (eighth) injection.
# [5] = tested on: HPV-16 transformed immortal mouse epithelial cells (C3); settings: cited from earlier work; for tumor growth: intratumor injection, separately or together, C3 tumors in mice
# [6] = Toxicokinetic (TK) analysis of M4N serum concentration in dogs; assay type: in vivo, Beagle Dogs; settings: DMSO vehicle, doses up to 100 mg/kg
# Protocol: Blood samples from the DMSO group animals were collected via the cephalic vein on SD 1, SD 3, SD 6, and SD 8 at the following timepoints: predose, 0.25, 0.5, 1, 2, 4, 8, and 16 hours following the final injection dose of M4N-DMSO. Blood samples collected from the animals were processed for plasma and serum for TK analysis.
# The plasma and serum samples were sent to MedTox Laboratories, the Sponsor's designated laboratory for TK analysis. TK analysis of M4N plasma and serum concentration-time data was performed using a validated method (M200406) by MedTox Laboratories and analyzed by noncompartmental methods to obtain estimates of toxicokinetic parameters (where data allow), but not necessarily limited to, Cmax, Tmax and AUC.
# [7] = DMSO; cited from earlier work
# [8] = tested on: refractory head and neck carcinomas
# Protocol: All patients were diagnosed with refractory head and neck carcinomas.
# Nine (9) subjects were dosed with an intratumoral dose of M4N given weekly for three weeks, at doses of 5 mg/cm^3 tumor volume (2 subjects), 10 mg/cm^3 (2 subjects) 15 mg/cm^3 (3 subjects) and 20 mg/cm^3 (2 subjects). Doses up to 495 mg weekly for three weeks were administered.
# Solubility = assay type: physicochemical
# T1 sequence (P05067 672-713 limits assumed): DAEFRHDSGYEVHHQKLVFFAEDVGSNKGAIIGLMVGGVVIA
compound,measurement,setting,value
"CC(Cc1ccc(O)c(O)c1)C(C)Cc1ccc(O)c(O)c1 (centres unmarked) [NDGA, nordihydroguaiaretic acid]",breakdown of fAβ(1-42),fAβ(1-42),dose-dependently broke down
same,tumor growth,[1],Some evidence of inhibition of tumor growth
same,β-amyloid fibrils (fAβ) formation,β-amyloid fibrils,inhibited
same,hypertension,[2],reducing hypertension
same,breakdown of fAβ(1-40),fAβ(1-40),dose-dependently broke down
same,serum glucose,[3],reducing
same,serum non-esterified fatty acids,[3],reducing
same,serum triglyceride,[3],reducing
"COc1ccc(C[C@@H](C)[C@@H](C)Cc2ccc(OC)c(OC)c2)cc1OC [M4N, meso-1,4-bis(3,4-dimethoxyphenyl)-2,3-dimethylbutane]",dosage delivered without drug-related toxicity,"head and neck cancer; for up to five days, with or without G4N 20 mg per day",20 mg per day
same,patients remaining disease free,head and neck cancer; long-term follow ups of the ex-US study,64%
same,efficacy in terms of induction of necrosis,"head and neck cancer; patients that completed the treatment, daily dosing then resection",over 80%
same,dose safely administered,[4],up to 100 mg/kg
same,penetration of tumor tissues,[5]; composition of M4N in DMSO injected into the tumor,penetrate most but not all of the tumor tissues
same,tumor growth,[5],some evidence of suppression of tumor growth
same,blood levels of M4N achieved,[6],"up to 14,000 ng/ml"
same,solubility in dimethyl sulfoxide,[7],soluble
same,damage to healthy tissue surrounding the tumor,[8]; in vivo,No damage
same,dose delivered without drug-related toxicity,[8]; in vivo,up to 495 mg
same,dosing related adverse events,[8]; in vivo,mild or moderate pain on injection
same,hematology parameters,[8]; in vivo,No changes attributable to drug
same,liver function tests (LFTs),[8]; in vivo,"Sporadic, and non-reproducible mild elevations"
same,number of Serious Adverse Events (SAE),[8]; in vivo,6
same,relation of SAEs to study medication,[8]; in vivo,unlikely or not related to study medication
same,tolerability of dosing,[8]; in vivo,generally well tolerated
same,patients with radiologically confirmed tumor volume reduction,[8]; patients completing three doses,three of the six
same,efficacy in terms of induction of necrosis,"[8]; patients that completed the treatment, weekly escalating doses",over 80%
same,subjects with drug related tumor necrosis after injection,[8]; subjects receiving three doses,5 of 6
"C[C@H](Cc1ccc(OC(=O)CN(C)C)c(OC(=O)CN(C)C)c1)[C@@H](C)Cc1ccc(OC(=O)CN(C)C)c(OC(=O)CN(C)C)c1 [G4N, meso-1,4-bis[3,4-(dimethylaminoacetoxy)phenyl]-(2R,3S)-dimethylbutane]",water solubility,Solubility,water-soluble
same,tumor growth,[5],some evidence of suppression of tumor growth
